Where two headings read alike, the source gives them in different places.
Format: physicochemical
Procedure: A 10 mL solution of M4N at a concentration of about 10 mg/mL in 40% BP-β-CD was made as follows. About 10 mL of the 40% HP-β-CD solution were added to a glass beaker containing a stir bar. The beaker was placed on a magnetic plate and the stir bar was set to stir at medium speed. About […] of M4N were slowly added to the 40% HP-β-CD in the center of the beaker with the aid of a spatula. The M4N/40% HP-β-CD mixture was stirred for 2 hr or until all M4N was uniformly suspended without any clumps being present. The M4N/40% HP-β-CD mixture was optionally heated at 80° C. for about 30 min. (or longer if a larger volume of solution was desired, for example, 1 hr at 80° C. for 100 mL of the M4N/HP-β-CD mixture), or longer as needed to ensure complete dissolution of M4N. […] The final M4N/40% HP-β-CD solution was stored at room temperature and was kept protected from light. This process may be scaled up or down to obtain the requisite volume or concentration of M4N. Formulations containing M4N in other cyclodextrin solutions may be similarly made, such as, for example, by substituting HP-β-CD in the process described above with other cyclodextrins. […]
A 10 mL solution of M4N at a concentration of about 10 mg/mL in 50% HP-β-CD/0.5% HPMC was made as follows. About 10 mL of the 50% HP-β-CD/0.5% HPMC solution were added to a glass beaker containing a stir bar. The beaker was placed on a magnetic plate and the stir bar was set to stir at medium speed. About 100 mg of M4N were slowly added to the 50% HP-β-CD/0.5% HPMC in the center of the beaker with the aid of a spatula. The M4N/50% HP-β-CD/0.5% HPMC mixture was stirred for 24 hr or until all M4N was uniformly suspended without any clumps being present. The M4N/50% HP-β-CD/0.5% HPMC mixture was heated at about 90° C. for about 30 min. (or longer if a larger volume of solution was desired, for example, 1 hr at 90° C. for 500 mL of the M4N/50% HP-β-CD/0.5% HPMC mixture), or longer as needed to ensure complete dissolution of M4N. […] The final M4N/50% HP-β-CD/0.5% HPMC solution was stored at room temperature and was kept protected from light.
A 10 mL solution of M4N at a concentration of about 20 mg/mL in 5% EC (w/v) (the “EC formulation”) was made as follows. About 10 mL of 5% EC formulation, made as described above, were added to a glass beaker containing a stir bar. The beaker was placed on a magnetic plate and the stir bar was set to stir at medium speed, and covered with a round Teflon® cover. About 200 mg of M4N were slowly added to the 5% EC formulation in the center of the beaker with the aid of a spatula to prevent M4N from sticking to the beaker wall. The M4N/EC mixture was stirred for 2 hr or until all M4N had dissolved or was uniformly suspended without any clumps being present. The M4N/EC mixture was heated at about 60° C. for about 30 min. (or longer if a larger volume of solution was desired, for example, 1 hr at 60° C. for 500 mL of the M4N/EC mixture), or longer as needed to ensure complete dissolution of M4N. […] The final M4N/EC solution was stored at room temperature and was kept protected from light.
A 10 mL solution of M4N at a concentration of about 50 mg/mL in sesame oil was made as follows. About 10 mL of sesame oil were added to a glass beaker containing a stir bar. The beaker was placed on a magnetic plate and the stir bar was set to stir at medium speed. About 500 mg of M4N were slowly added to the sesame oil in the center of the beaker with the aid of a spatula to prevent M4N from sticking to the beaker wall. The M4N/sesame oil mixture was stirred for about 2 hr or until all M4N had dissolved or was uniformly suspended without any clump being present. The M4N/sesame oil mixture was heated at about 60° C. for about 30 min. (or longer if a larger volume of solution was desired, for example, 1 hr at 60° C. for 500 mL of the M4N/sesame oil mixture), or longer as need to ensure complete dissolution of M4N. […]

Compound: COc1ccc(C[C@@H](C)[C@@H](C)Cc2ccc(OC)c(OC)c2)cc1OC [Formulation M4N, meso-1,4-bis(3,4-dimethoxyphenyl)-2,3-dimethylbutane]
- Dissolution After Cool-Down (M4N 50 mg/mL in Corn Oil): Y
- Dissolution After Cool-Down (M4N 50 mg/mL in Mineral Oil): Y
- Dissolution After Cool-Down (M4N 50 mg/mL in Sesame Oil): Y
- Dissolution After Cool-Down (M4N 50 mg/mL in Soybean Oil): N
- Dissolution After Cool-Down (M4N 52 mg/mL in 40% Peppermint Oil, 40% PEG 400, 20% Glycerol): N
- Dissolution After Cool-Down (M4N 59 mg/mL in 45% Peppermint Oil, 45% PEG 400, 10% Glycerol): N
- Dissolution After Cool-Down (M4N 60 mg/mL in 0.4% (v/v) Cinnamaldehyde, 5% (w/v) Beeswax, 94.5% (v/v) Olive Oil, cell wraps: Creamy solid): Creamy
- Dissolution After Cool-Down (M4N 60 mg/mL in 33% Peppermint Oil, 33% Tween ® 20, 33% PEG 400): Y
- Dissolution After Rotation (M4N 60 mg/mL in 50% HP-β-CD, 0.5% CMC): Suspension
- Dissolution After Cool-Down (M4N 60 mg/mL in 50% Peppermint Oil, 50% PEG 300): Y
- Dissolution After Cool-Down (M4N 60 mg/mL in 50% Peppermint Oil, 50% PEG 400): Y
- Dissolution After Cool-Down (M4N 60 mg/mL in 50% Peppermint Oil, 50% Sesame Oil): Y
- Dissolution After Cool-Down (M4N 60 mg/mL in 50% Peppermint Oil, 50% Tween ® 20): Y
- Dissolution After Cool-Down (M4N 60 mg/mL in 60% Peppermint Oil, 40% PEG 300): Y
- Dissolution After Cool-Down (M4N 60 mg/mL in 60% Peppermint Oil, 40% PEG 400): N
- Dissolution After Cool-Down (M4N 60 mg/mL in 80% Olive Oil, 20% Soybean Oil): N
- Dissolution After Cool-Down (M4N 60 mg/mL in 85% Sesame Oil, 15% Tween ® 20): N
- Dissolution After Cool-Down (M4N 60 mg/mL in Corn Oil): Y
- Dissolution After Cool-Down (M4N 60 mg/mL in Peppermint Oil): Y
- Dissolution After Cool-Down (M4N 100 mg/g in 50% Soybean Oil, 50% Beeswax (w/w), cell wraps: waxy solid): waxy
- Dissolution After Rotation (M4N 100 mg/mL in 2.3% HPMC): N
- Dissolution After Cool-Down (M4N 100 mg/mL in 5% EC in EtOH): N
- Dissolution After Rotation (M4N 100 mg/mL in 5% EC in EtOH): N
- Dissolution After Rotation (M4N 100 mg/mL in 15% α-CD): N
- Dissolution After Heating at X° C. (M4N 100 mg/mL in 15% α-CD, 90°): N at 90°
- Dissolution After Rotation (M4N 100 mg/mL in 30% HP-β-CD): N
- Dissolution After Heating at X° C. (M4N 100 mg/mL in 30% HP-β-CD, 90°): N at 90°
- Dissolution After Rotation (M4N 100 mg/mL in 40% HP-β-CD): N
- Dissolution After Heating at X° C. (M4N 100 mg/mL in 40% HP-β-CD, 80°): N at 80°
- Dissolution After Rotation (M4N 100 mg/mL in 50% HP-β-CD): N
- Dissolution After Heating at X° C. (M4N 100 mg/mL in 50% HP-β-CD, 90°): N at 90°
- Dissolution After Cool-Down (M4N 100 mg/mL in 50% Peppermint Oil, 50% PEG 400): N
- Dissolution After Cool-Down (M4N 100 mg/mL in Camillia Oil, cell wraps: Creamy solid): Creamy
- Dissolution After Cool-Down (M4N 100 mg/mL in Corn Oil): N
- Dissolution After Cool-Down (M4N 100 mg/mL in Eugenol, Beeswax, Olive Oil, 0.5% (v/v) Eugenol, cell wraps: Creamy solid): Creamy
- Dissolution After Cool-Down (M4N 100 mg/mL in Mineral Oil): N
- Dissolution After Cool-Down (M4N 100 mg/mL in Peppermint Oil): Y
- Dissolution After Cool-Down (M4N 125 mg/mL in 50% Peppermint Oil, 50% PEG 300): N
- Dissolution After Cool-Down (M4N 125 mg/mL in 50% Peppermint Oil, 50% PEG 400): N
- Dissolution After Cool-Down (M4N 125 mg/mL in 50% Peppermint Oil, 50% Tween ® 20): N
- Dissolution After Cool-Down (M4N 125 mg/mL in Peppermint Oil): Y
- Dissolution After Rotation (M4N 150 mg/g in 84% HP-β-CD, 1% HPMC, Lyophilized): powder
- Dissolution After Rotation (M4N 185 mg/g in 81.5% (w/w) HP-β-CD, Lyophilized): powder
- Dissolution After Cool-Down (M4N 200 mg/g in 75% Soybean Oil, 25% Beeswax (w/w), cell wraps: waxy solid): waxy
- Dissolution After Cool-Down (M4N 200 mg/g in 90% Olive Oil, 10% Beeswax (w/w), cell wraps: waxy solid): waxy
- Dissolution After Cool-Down (M4N 200 mg/g in 90% Soybean Oil, 10% Beeswax (w/w), cell wraps: waxy solid): waxy
- Dissolution After Cool-Down (M4N 200 mg/g in 95% Olive Oil, 5% Beeswax (w/w), cell wraps: waxy solid): waxy
- Dissolution After Cool-Down (M4N 200 mg/g in 95% Soybean Oil, 5% Beeswax (w/w), cell wraps: waxy solid): waxy
- Dissolution After Cool-Down (M4N 200 mg/mL in Mineral Oil): N
- Dissolution After Cool-Down (PEG 300 100%, M4N 25 mg/mL, after heating at 50° C.): Y
- Dissolution After Cool-Down (PEG 400 100%, M4N 25 mg/mL, after heating at 50° C.): Y
- Dissolution After Cool-Down (PEG 400 100%, M4N 30 mg/mL, after heating at 50° C.): Y
- Dissolution After Cool-Down (PEG 400 100%, M4N 40 mg/mL, after heating at 50° C.): Y
- Dissolution After Cool-Down (PEG 400 100%, M4N 50 mg/mL, after heating at 60° C.): Y
- Dissolution After Cool-Down (PEG 400 100%, M4N 100 mg/mL, after heating at 60° C.): N
- Dissolution After Cool-Down (PEG 400 mono-laurate 100%, M4N 20 mg/mL, after heating at 50° C.): Y
- Dissolution After Cool-Down (PEG 400 mono-laurate 100%, M4N 50 mg/mL, after heating at 50° C.): Y
- Dissolution After Cool-Down (Propylene Glycol 100% (w/v), M4N 1 mg/mL, after heating at 55° C.): Y
- Dissolution After Cool-Down (Propylene Glycol 100% (w/v), M4N 10 mg/mL, after heating at 55° C.): Y
- Dissolution After Cool-Down (Propylene Glycol 100% (w/v), M4N 20 mg/mL, after heating at 55° C.): Y
